2 substances from patent US20100239556A1, “PROMOTING ECM PRODUCTION BY FIBROBLAST CELLS AND/OR PROMOTING MIGRATION OF FIBROBLAST CELLS IN A BIOLOGICAL SYSTEM” (TGR BioScience Pty Ltd., priority 2006, published 2010) can be followed below.

Holding throughout (assay type): cell-based, human
The test system of experiment [1] is HFF cells. Kind of experiment: Collagen I production in the presence of dexamethasone. On the procedure: Primary human foreskin fibroblast cells (HFF) were seeded into 96 well plates at a density of 1.2×10^4 cells/well and cultured overnight in 10% fetal bovine serum/Dulbecco's minimum essential media (10% FBS/DMEM) at 37° C. and 5% CO2. The cells were then starved overnight in serum free DMEM and triplicate wells treated for six hours with a range of doses of proteins with peroxidase activity; horse radish peroxidase (HRP; 0.2-50 ug/ml), Arthromyces ramosus peroxidase (ARP; 0.2-50 ug/ml), microperoxidase (MP; 8-500 ug/ml), soy bean peroxidase (SBP; 0.2-100 ug/ml) and lactoperoxidase (LP; 10-310 ug/ml) (all obtained from Sigma-Aldrich). At the end of the six hour treatment period, the media was aspirated and replaced with fresh serum free DMEM and the cells cultured for a further 72 hours. After 72 hours the culture media was collected for assessment of secreted, soluble collagen types I, III and VI as well as fibronectin protein and the cells assessed for viability/growth using an alamar blue fluorescent dye assay. This assay measures the reduction of oxidized, blue nonfluorescent Alamar Blue reagent to a pink fluorescent dye in the cell medium, such that the higher the amount of reduction, the greater the cell number and/or activity (O'Brien Eur J Biochem 267 2000). Briefly, cells were bathed in a 10% Alamar Blue/phosphate-buffered saline (PBS) solution for 30-60 minutes and fluorescence measured at wavelengths of 485 nm excitation and 595 nm emission using a Wallac Victor Multilabel HTS counter. Relative fluorescent units (RFU) for each sample were normalized to control wells (DMEM only treated cells) and data expressed as mean±standard error of the mean (sem) for triplicate wells. Experiments were repeated at least three times with the combined data from all experiments shown.
The amount of soluble collagen types I, III, and VI in HFF conditioned media was measured by a direct coat ELISA method using standard curves constructed from purified human collagen I, III or VI (extracted from human placenta; col I, BD Biosciences; col III and VI, Rocklands Immunochemicals) and fibronectin (extracted from human plasma, Chemicon). Samples and standards (20 μl/well) were added to a 384 well spectraplate (Packard BioScience) and left at room temperature (RT) overnight. […] After a final wash (6×PBS-T), enhancement solution was added for at least 10 minutes and fluorescence measured at excitation 340 nm and emission 615 nm using a Wallac Victor Multilabel HTS counter. The respective ECM concentration of each sample was determined from the standard curve (μg/ml) and normalized to control wells (DMEM only treated cells) with the mean±sem for triplicate wells calculated. […]

Experiment [2] relates to HFF cells. In words: Soluble collagen I secreted by fibroblast-populated INTEGRA (ELISA). The following applies: SBP 12.5 μg/ml for 24 hours, ELISA after 72 hours. On the procedure:
Additional experiments were performed to determine if fibroblast cells populating a three-dimensional framework or scaffold could be stimulated to secrete soluble collagen I into the media bathing the three-dimensional framework or scaffold. For these experiments, HFF cells were seeded onto the INTEGRA® and allowed to populate the scaffold for two weeks under normal culture conditions (10% FCS supplementation). The populated scaffold was then stimulated with a protein having peroxidase activity by immersing it in basal media (DMEM) containing SBP (12.5 μg/ml) for 24 hours. The INTEGRA® was then placed into fresh DMEM and the collagen-I content of the media measured by ELISA after 72 hours.

In experiment [3] the test system is HFF cells. Kind of experiment: Collagen I in PuraMatrix Peptide Hydrogel (western blot). The following applies: one week. On the procedure: Additional experiments were also performed to ensure the effects observed using the INTEGRA® as a three-dimensional framework or scaffold were not limited to a bovine collagen/glycosaminoglycan structure and could be achieved in synthetically derived matrices. For these experiments a PuraMatrix™ Peptide Hydrogel was used. The PuraMatrix Peptide Hydrogel is a synthetic matrix that self assembles into a three-dimensional hydrogel (1% w/v amino acids: 99% water) under physiological conditions with a nanometer scale fibrous structure and an average pore size of 50-200 nm. For these experiments, HFF cells were suspended in a 20% sucrose solution, with or without proteins having peroxidase activity, and added 1:1 to neat (1%) PuraMatrix hydrogel and carefully pipette mixed, so as not to create bubbles. Each cell/gel mix was plated in 24 well plates and allowed to partially set at room temperature for 5 min. Next, DMEM supplemented with either 10, 5 or 2% FCS was very slowly overlayed in a dropwise fashion down the edge of the well so as not to disrupt the gel. Plates were placed in a 37° C. incubator for the mix to completely solidify, and the media was changed twice over 1 hr to equilibrate the gel to pH 7.4. The encapsulated hydrogel was incubated for one week, the bathing culture media removed and RIPA buffer added to the gel for total protein extraction. […]
On the technique in general: A western blot detects proteins with antibodies after separation by electrophoresis.

As to Arthromyces ramosus peroxidase [ARP], the “increase in collagen I levels” value with HFF cells [1] (3.1-25 μg/ml, no dexamethasone) was 4.5-7 fold. The “collagen accumulation in cells treated with both dexamethasone and ARP” value with HFF cells [1] (dexamethasone 20 μM) is “significant levels of collagen accumulation were still evident”.
In the case of soy bean peroxidase [SBP], the “increase in collagen I secreted into the media bathing the scaffold” value in the experiment with HFF cells [2] is reported as 2-3 fold. The “collagen I produced in the Hydrogel matrix” value is given as “produced more collagen I” in the experiment on HFF cells [3] (SBP 25 μg/ml in 10% FCS versus 10% FCS alone) and “relatively more collagen I was produced” with HFF cells [3] (SBP in 2 or 5% FCS).
